{"source": "patent US20250161538A1", "about": "“POLYMER-BASED MATERIAL WITH ANTI-BACTERIAL PROPERTIES WITH IMPROVED MECHANICAL STRENGTH FOR DENTAL APPLICATIONS” (priority 2022, published 2025)", "origin": "cited, not measured here", "test_system": "adult rat pulp tissue", "settings": "in vivo, po"}
{"smiles": "[Ag+]", "note": "[Ag ions, silver]", "values": [{"measurement": "cytotoxic effect", "result": "induce cytotoxic effect"}]}
